From PubChem BioAssay AID220 (DTP/NCI, 2004)
Where “and” joins values, the source holds several entries; their conditions need not be identical. Equal values may be shown once. Results filed as inconclusive are left out.

Test system: CD8F1 mice, subcutaneous mammary adenocarcinoma, T/C%
Experiment: NCI In Vivo Anticancer Drug Screen. Data for tumor model Mammary Adenocarcinoma CD8F1 (subcutaneous) in CD8F1
Details: higher = larger tumour
Outline: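 Antitumor activity is assessed in transplantable-tumor mice by comparing the treated group with a vehicle-treated control group. Survival or tumor size serves as the measure, reported as T divided by C.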

[1] = endpoint: median tumor weight (est.), dose: 25.0 mg/kg/injection, schedule: Q07DX005 (ip), vehicle: suspension in saline
[2] = endpoint: median tumor weight (est.), dose: 50.0 mg/kg/injection, schedule: Q07DX005 (ip), vehicle: suspension in saline
[3] = endpoint: median tumor weight (est.), dose: 100.0 mg/kg/injection, schedule: Q07DX005 (ip), vehicle: suspension in saline

Q: With `O=C(CC(=O)C(F)(F)F)c1csc2ccccc12` as the compound, how does the T/C (endpoint: median tumor weight change, dose: 31.25 mg/kg/injection, schedule: Q01DX001 (ip), vehicle: Klucel (hydroxypropylcellulose) (HPC)) read?
A: 35 % of control

Q: What about the T/C (endpoint: median tumor weight change, dose: 62.5 mg/kg/injection, schedule: Q01DX001 (ip), vehicle: Klucel (hydroxypropylcellulose) (HPC)) of the same compound?
A: 39 % of control

Q: And the T/C (endpoint: median tumor weight change, dose: 125.0 mg/kg/injection, schedule: Q01DX001 (ip), vehicle: Klucel (hydroxypropylcellulose) (HPC))?
A: 65 % of control

Q: What does the source list for `CC(=O)OC(C)C1C2=C(C(=O)CC1(C)O)C(=O)c1c(ccc(-c3ccc4c(c3O)C(=O)C3=C(C4=O)C(C(C)OC(C)=O)C(C)(O)CC3=O)c1O)C2=O` (centres undefined)?
A: T/C (endpoint: median tumor weight change, dose: 3.75 mg/kg/injection, schedule: Q01DX001 (ip), vehicle: saline with Tween-80): 105 % of control; T/C (endpoint: median tumor weight change, dose: 7.5 mg/kg/injection, schedule: Q01DX001 (ip), vehicle: saline with Tween-80): 42 % of control; T/C (endpoint: median tumor weight change, dose: 15.0 mg/kg/injection, schedule: Q01DX001 (ip), vehicle: saline with Tween-80): 88 % of control; T/C (endpoint: median tumor weight change, dose: 30.0 mg/kg/injection, schedule: Q01DX001 (ip), vehicle: saline with Tween-80): 83 % of control

Q: Which T/C (endpoint: median tumor weight change, dose: 50.0 mg/kg/injection, schedule: Q01DX001 (ip), vehicle: saline with Tween-80) does the source give for `C[n+]1cccc(NC(=O)c2ccc(NC(=O)C34CCC(C(=O)Nc5ccc(C(=O)Nc6ccc[n+](C)c6)cc5)(CC3)CC4)cc2)c1` here?
A: 57 % of control and 78 % of control (2×)

Q: And the T/C (endpoint: median tumor weight change, dose: 200.0 mg/kg/injection, schedule: Q01DX001 (ip), vehicle: saline with Tween-80)?
A: -66 % of control

Q: For `O=C1N[C@H]2[C@H](O)[C@H](O)[C@@H](O)[C@H](O)[C@@H]2c2cc3c(c(O)c21)OCO3`, which T/C (endpoint: median tumor weight change, dose: 1.25 mg/kg/injection, schedule: Q01DX005 (ip), vehicle: saline + alcohol) is on record?
A: 110 % of control

Q: What about the T/C (endpoint: median tumor weight change, dose: 2.5 mg/kg/injection, schedule: Q01DX005 (ip), vehicle: saline + alcohol) of the same compound?
A: 66 % of control

Q: What about the T/C (endpoint: median tumor weight change, dose: 5.0 mg/kg/injection, schedule: Q01DX005 (ip), vehicle: saline + alcohol) of the same compound?
A: 48 % of control

Q: With `Cc1cc(O)c(N=Nc2ccc(C(=O)O)cc2)cc1C` as the compound, how does the T/C (endpoint: mean tumor weight (est.), dose: 200.0 mg/kg/injection, schedule: Q07DX001 (ip), vehicle: carboxymethylcellulose (CMC)) read?
A: 82 % of control

Q: And the T/C (endpoint: mean tumor weight (est.), dose: 400.0 mg/kg/injection, schedule: Q07DX001 (ip), vehicle: carboxymethylcellulose (CMC))?
A: 74 % of control

Q: What about the T/C (endpoint: mean tumor weight, dose: 100.0 mg/kg/injection, schedule: Q07DX007 (ip), vehicle: saline) of the same compound?
A: 106 % of control

Q: What about the T/C (endpoint: mean tumor weight, dose: 200.0 mg/kg/injection, schedule: Q07DX007 (ip), vehicle: saline) of the same compound?
A: 20 % of control

Q: What about the T/C (endpoint: mean tumor weight, dose: 400.0 mg/kg/injection, schedule: Q07DX007 (ip), vehicle: saline) of the same compound?
A: 35 % of control

Q: What about the T/C [1] of the same compound?
A: 98 % of control

Q: And the T/C [2]?
A: 90 % of control

Q: And the T/C [3]?
A: 98 % of control

Q: What about the T/C (endpoint: median tumor weight (est.), dose: 200.0 mg/kg/injection, schedule: Q07DX005 (ip), vehicle: suspension in saline) of the same compound?
A: 108 % of control

Q: What about the T/C (endpoint: median tumor weight (est.), dose: 400.0 mg/kg/injection, schedule: Q07DX005 (ip), vehicle: suspension in saline) of the same compound?
A: 98 % of control

Q: How did the T/C (endpoint: median tumor weight (est.), dose: 12.5 mg/kg/injection, schedule: Q07DX005 (ip), vehicle: Klucel (hydroxypropylcellulose) (HPC)) turn out when `CS(=O)(=O)OCCCCOS(C)(=O)=O` was run?
A: 91 % of control and 95 % of control

Q: And the T/C (endpoint: median tumor weight (est.), dose: 25.0 mg/kg/injection, schedule: Q07DX005 (ip), vehicle: Klucel (hydroxypropylcellulose) (HPC))?
A: 59 % of control and 70 % of control

Q: What about the T/C (endpoint: median tumor weight (est.), dose: 200.0 mg/kg/injection, schedule: Q07DX005 (ip), vehicle: Klucel (hydroxypropylcellulose) (HPC)) of the same compound?
A: 8 % of control

Q: How did the T/C (endpoint: median tumor weight (est.), dose: 12.5 mg/kg/injection, schedule: Q07DX005 (ip), vehicle: other) turn out when `O=c1c(O)c(-c2cc(O)c(O)c(O)c2)oc2cc(O)cc(O)c12` was run?
A: 85 % of control

Q: And the T/C (endpoint: median tumor weight (est.), dose: 25.0 mg/kg/injection, schedule: Q07DX005 (ip), vehicle: other)?
A: 85 % of control

Q: And the T/C (endpoint: median tumor weight (est.), dose: 50.0 mg/kg/injection, schedule: Q07DX005 (ip), vehicle: other)?
A: 122 % of control

Q: What about the T/C (endpoint: median tumor weight (est.), dose: 100.0 mg/kg/injection, schedule: Q07DX005 (ip), vehicle: other) of the same compound?
A: 70 % of control

Q: What about the T/C (endpoint: median tumor weight (est.), dose: 200.0 mg/kg/injection, schedule: Q07DX005 (ip), vehicle: other) of the same compound?
A: 89 % of control

Q: What about the T/C (endpoint: median tumor weight (est.), dose: 400.0 mg/kg/injection, schedule: Q07DX005 (ip), vehicle: other) of the same compound?
A: 70 % of control

Q: And the T/C (endpoint: median tumor weight change, dose: 125.0 mg/kg/injection, schedule: Q01DX001 (ip), vehicle: saline with Tween-80)?
A: 61 % of control

Q: What about the T/C (endpoint: median tumor weight change, dose: 250.0 mg/kg/injection, schedule: Q01DX001 (ip), vehicle: saline with Tween-80) of the same compound?
A: 46 % of control

Q: And the T/C (endpoint: median tumor weight change, dose: 500.0 mg/kg/injection, schedule: Q01DX001 (ip), vehicle: saline with Tween-80)?
A: 40 % of control

Q: `COc1cc(C)c2c(c1C=O)Oc1c(c(C)c(O)c3c1C(O)OC3=O)OC2=O` (centres undefined) was tested. Which T/C (endpoint: mean tumor weight, dose: 3.12 mg/kg/injection, schedule: Q07DX005 (ip), vehicle: saline) did it give?
A: 42 % of control

Q: And the T/C (endpoint: mean tumor weight, dose: 6.25 mg/kg/injection, schedule: Q07DX005 (ip), vehicle: saline)?
A: 49 % of control

Q: What about the T/C (endpoint: mean tumor weight, dose: 25.0 mg/kg/injection, schedule: Q07DX005 (ip), vehicle: saline) of the same compound?
A: 168 % of control

Q: And the T/C (endpoint: mean tumor weight, dose: 50.0 mg/kg/injection, schedule: Q07DX005 (ip), vehicle: saline)?
A: 61 % of control

Q: What about the T/C (endpoint: median tumor weight (est.), dose: 3.12 mg/kg/injection, schedule: Q07DX005 (ip), vehicle: saline) of the same compound?
A: 97 % of control

Q: And the T/C (endpoint: median tumor weight (est.), dose: 3.12 mg/kg/injection, schedule: Q07DX005 (ip), vehicle: suspension in saline)?
A: 89 % of control

Q: What about the T/C (endpoint: median tumor weight (est.), dose: 6.25 mg/kg/injection, schedule: Q07DX005 (ip), vehicle: saline) of the same compound?
A: 114 % of control

Q: What about the T/C (endpoint: median tumor weight (est.), dose: 6.25 mg/kg/injection, schedule: Q07DX005 (ip), vehicle: suspension in saline) of the same compound?
A: 104 % of control

Q: What about the T/C (endpoint: median tumor weight (est.), dose: 12.5 mg/kg/injection, schedule: Q07DX005 (ip), vehicle: suspension in saline) of the same compound?
A: 94 % of control

Q: What about the T/C (endpoint: median tumor weight (est.), dose: 25.0 mg/kg/injection, schedule: Q07DX005 (ip), vehicle: saline) of the same compound?
A: 75 % of control

Q: And the T/C [1]?
A: 96 % of control

Q: And the T/C (endpoint: median tumor weight (est.), dose: 50.0 mg/kg/injection, schedule: Q07DX005 (ip), vehicle: saline)?
A: 96 % of control

Q: And the T/C [2]?
A: 88 % of control

Q: What about the T/C [3] of the same compound?
A: 90 % of control

Q: `CCC/C=C/C=C/C(=O)OC1/C(=C/C(=O)OC)CC2CC(C(C)O)OC(=O)CC(O)CC3CC(OC(C)=O)C(C)(C)C(O)(CC4C/C(=C/C(=O)OC)CC(/C=C/C(C)(C)C1(O)O2)O4)O3` (centres undefined) was tested. Which T/C (endpoint: median tumor weight change, dose: 0.02 mg/kg/injection, schedule: Q01DX001 (ip), vehicle: saline + alcohol) did it give?
A: 63 % of control

Q: And the T/C (endpoint: median tumor weight change, dose: 0.04 mg/kg/injection, schedule: Q01DX001 (ip), vehicle: saline + alcohol)?
A: 115 % of control

Q: And the T/C (endpoint: median tumor weight change, dose: 0.09 mg/kg/injection, schedule: Q01DX001 (ip), vehicle: saline + alcohol)?
A: 95 % of control

Q: What about the T/C (endpoint: median tumor weight change, dose: 0.19 mg/kg/injection, schedule: Q01DX001 (ip), vehicle: saline + alcohol) of the same compound?
A: 22 % of control

Q: How did the T/C (endpoint: median tumor weight change, dose: 0.03 mg/kg/injection, schedule: Q01DX001 (ip), vehicle: suspension in saline) turn out when `CNC(=O)/C=C/C1=CN2C(=O)c3ccc(C)c(O)c3NC(OC)C2C1` (centres undefined) was run?
A: 70 % of control

Q: What about the T/C (endpoint: median tumor weight change, dose: 0.07 mg/kg/injection, schedule: Q01DX001 (ip), vehicle: suspension in saline) of the same compound?
A: 51 % of control

Q: What about the T/C (endpoint: median tumor weight change, dose: 0.31 mg/kg/injection, schedule: Q01DX001 (ip), vehicle: saline) of the same compound?
A: 150 % of control

Q: What about the T/C (endpoint: median tumor weight change, dose: 0.62 mg/kg/injection, schedule: Q01DX001 (ip), vehicle: saline) of the same compound?
A: 83 % of control

Q: Which results are given for `c1ccc2c(c1)nnn1c3cnccc3nc21`?
A: T/C (endpoint: median tumor weight (est.), dose: 3.12 mg/kg/injection, schedule: Q07DX005 (ip), vehicle: saline with Tween-80): 115 % of control; T/C (endpoint: median tumor weight (est.), dose: 6.25 mg/kg/injection, schedule: Q07DX005 (ip), vehicle: saline with Tween-80): 85 % of control; T/C (endpoint: median tumor weight (est.), dose: 12.5 mg/kg/injection, schedule: Q07DX005 (ip), vehicle: saline with Tween-80): 105 % of control; T/C (endpoint: median tumor weight (est.), dose: 25.0 mg/kg/injection, schedule: Q07DX005 (ip), vehicle: saline with Tween-80): 124 % of control

Q: Which T/C (endpoint: median tumor weight change, dose: 10.0 mg/kg/injection, schedule: Q01DX001 (ip), vehicle: saline) does the source give for `ClCCCN1CCN(CCCl)CC1` here?
A: 92 % of control and 97 % of control

Q: What about the T/C (endpoint: median tumor weight change, dose: 14.4 mg/kg/injection, schedule: Q01DX001 (ip), vehicle: saline) of the same compound?
A: 88 % of control

Q: What about the T/C (endpoint: median tumor weight change, dose: 20.0 mg/kg/injection, schedule: Q01DX001 (ip), vehicle: saline) of the same compound?
A: 27 % of control and 52 % of control

Q: What about the T/C (endpoint: median tumor weight change, dose: 24.0 mg/kg/injection, schedule: Q01DX001 (ip), vehicle: saline) of the same compound?
A: 15 % of control

Q: For `CCCCCCCCCCCCCCCC(=O)O[C@@]12C[C@@H](C)[C@@]3(O)[C@@H](C=C(CO)C[C@]4(O)C(=O)C(C)=C[C@@H]34)[C@@H]1C2(C)C`, which T/C (endpoint: median tumor weight (est.), dose: 0.06 mg/kg/injection, schedule: Q07DX005 (ip), vehicle: saline) is on record?
A: 84 % of control

Q: And the T/C (endpoint: median tumor weight (est.), dose: 0.12 mg/kg/injection, schedule: Q07DX005 (ip), vehicle: saline)?
A: 68 % of control

Q: And the T/C (endpoint: median tumor weight (est.), dose: 0.25 mg/kg/injection, schedule: Q07DX005 (ip), vehicle: saline)?
A: 62 % of control

Q: What about the T/C (endpoint: median tumor weight (est.), dose: 0.5 mg/kg/injection, schedule: Q07DX005 (ip), vehicle: saline) of the same compound?
A: 97 % of control

Q: What about the T/C (endpoint: median tumor weight (est.), dose: 1.0 mg/kg/injection, schedule: Q07DX005 (ip), vehicle: saline) of the same compound?
A: 68 % of control
